The source of these data is patent US20130116263A1, “PAK INHIBITORS FOR THE TREATMENT OF CELL PROLIFERATIVE DISORDERS” (AFRAXIS, INC., priority 2011, published 2013).

Holding throughout (type): cell-based
Experiment [1] deals with EBC-1. Put plainly: Growth inhibition in cancer cell lines (CellTiter-Glo), EBC-1. As to conditions: EBC-1, 72 hours exposure. (In general: Cellular ATP, detected with luciferase, serves as a proxy for viable cell number.)
The subject of experiment [2] is OVCAR-4. Briefly: Growth inhibition in cancer cell lines (CellTiter-Glo), OVCAR-4. As to conditions: OVCAR-4, 72 hours exposure. An excerpt: (§1) Methodology: 60 cell lines (CCRF-CEM, HL-60(TB), K-562, MOLT-4, RPMI-8226, SR, A549, EKVX, HOP-62, HOP-92, NCI-H226, NCI-H23, NCI-H322M, NCI-H460, NCI-H522, COLO 205, HCC-2998, HCT-116, HCT-15, HT29, KM12, SW-620, SF-268, SF-295, SF-539, SNB-19, SNB-75, U251, LOX IMV1, MALME-3M, M14, SK-MEL-2, SK− MEL-28, SK-MEL-5, UACC-257, UACC-62, IGR-OV 1, OVCAR-3, OVCAR-4, OVCAR-5, OVCAR-8, SK-OV-3, 786-0, A498, ACHN, CAKI-1, RXF 393, SN12C, TK-10, UO-31, PC-3, DU-145, MCF7, NCI/ADR-RES, MDA-MB-231, HS 578T, MDA-MB-435, MDA-MB-468, BT-549, and T-47D) are grown in RPMI-1640 medium with 10% FBS. Stock solutions of a test compound are prepared in DMSO. Concentrations of from about 0.001 μM to about 20 μM of each compound in RPM-1640 media are prepared. The test compound is added to wells containing 50 μL of cells and medium. A CellTiter-Glo (CTG) assay is carried out on the 0 hr plate to obtain a 0 hr count. Cells are exposed to the test compound for 72 hours. Following the exposure period, the plates are assayed using CTG. Luminescence is recorded on Synergy.
(§2) As a non-limiting example, Compound 30 as described herein was tested for growth inhibition against various cancer cell lines.

For experiment [3], the system named is IGROV-1. Briefly: Growth inhibition in cancer cell lines (CellTiter-Glo), IGROV-1. As to conditions: IGROV-1, 72 hours exposure.
Description: as §1, §2

For experiment [4], the system named is NCI-H520. Put plainly: Growth inhibition in cancer cell lines (CellTiter-Glo), NCI-H520. As to conditions: NCI-H520, 72 hours exposure.
Description: as §1, §2

The test system of experiment [5] is OVCAR-3. Briefly: Growth inhibition in cancer cell lines (CellTiter-Glo), OVCAR-3. Conditions: OVCAR-3, 72 hours exposure.
Description: as §1, §2

Experiment [6] has as its system SKOV-3. Briefly: Growth inhibition in cancer cell lines (CellTiter-Glo), SKOV-3. As to conditions: Homo sapiens, SK-OV-3; SKOV-3, 72 hours exposure.
Description: as §1, §2

Experiment [7] deals with SK-MES-1. Briefly: Growth inhibition in cancer cell lines (CellTiter-Glo), SK-MES-1. Conditions: SK-MES-1, 72 hours exposure.

Structures are written as SMILES.

By GI50 is commonly meant the concentration at which growth is held to half of that of the control.

In the case of `CCn1c(=O)c(-c2ccc(-c3nccnc3C)cc2Cl)cc2cnc(NC3CCOC(C)(C)C3)nc21` (stereo not shown) [Compound 30], the “Maximum Inhibition” value in experiment [1] is listed as −13%; in experiment [2], −50%; in experiment [3] it was −50%; in experiment [4], −17%; in experiment [5] it was −20%; in experiment [7], −14%. Moreover, the concentration for 50% growth inhibition (GI50) in experiment [1] (Homo sapiens) was determined as 3.5 µM; in experiment [2] (Homo sapiens) it was 2.6 µM; in experiment [3] (Homo sapiens), 0.33 µM; in experiment [4] (Homo sapiens), 6 µM; in experiment [5] (Homo sapiens), 3.1 µM; in experiment [6] it was 3.8 µM. In addition, in experiment [7] (Homo sapiens), it took 3.8 µM to inhibit growth by half (GI50).
